Source: US6313153A, “Compositions and methods for treating nephritis and inhibiting TGF -β related conditions using pyridylacrylamide derivatives” (Tsumura & Co., priority 1997, dated 2001)

Test system: anti-GBM nephritic mice
Test: anti-GBM nephritic mice: proteinuria, serum cholesterol, blood urea nitrogen and serum creatinine;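 as to Proteinuria 10th day: minus not effective plus trend double p<0.05 triple p<0.01 quadruple p<0.001 improvement vs control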;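 as to Proteinuria 5th day: minus not effective plus trend double p<0.05 triple p<0.01 quadruple p<0.001 improvement vs control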;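 as to Serum Parameter BUN (blood urea nitrogen): minus not effective plus trend double p<0.05 triple p<0.01 quadruple p<0.001 improvement vs control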;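 as to Serum Parameter S-Ch (serum cholesterol): minus not effective plus trend double p<0.05 triple p<0.01 quadruple p<0.001 improvement vs control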
Format: in vivo, BALB/c mice
Conditions: for Total Evaluation: 3 × (number of + in proteinuria) + (number of + in serum parameter); for Proteinuria 5th day: 5th day from intravenous injection of anti-GBM serum; for Proteinuria 5th day / Proteinuria 10th day / Serum Parameter BUN (blood urea nitrogen) / Serum Parameter S-Ch (serum cholesterol) / Serum Parameter S-Cr (serum creatinine): oral; for Proteinuria 10th day: 10th day from intravenous injection of anti-GBM serum; for Serum Parameter BUN (blood urea nitrogen) / Serum Parameter S-Ch (serum cholesterol) / Serum Parameter S-Cr (serum creatinine): 11th day
Method: BALB/c mice (5 weeks old, purchased from Nippon Charles Liver) were quarantined and adapted for about 1 week before subjecting to experiments. These mice were divided into several groups for the experiments so that average body weights and standard deviations were almost identical in all groups. Mouse anti-GBM (glomerular basement membrane) nephritis was caused by immunizing the mice with rabbit γ-globulin (1 mg) with Freund's complete adjuvant and intravenously injecting rabbit anti-mouse GBM serum on the fifth day from the immunization. Each compound tested was forcedly orally administered via an oral sonde almost simultaneously with the intravenous injection of the anti-GBM serum. On the 5th and 10th days from the intravenous injection, urine was taken by a plastic metabolic cage and proteinuria was measured (Ohtsuka Tonein TP2). On the 11th day, blood was taken by cutting the carotid and serum cholesterol (S--Ch), blood urea nitrogen (BUN) and serum creatinine (S--Cr) were measured by Toshiba TBA-380 autoanalyzer.

| SMILES | Total Evaluation | Proteinuria 5th day | Proteinuria 10th day | Serum Parameter BUN (blood urea nitrogen) | Serum Parameter S-Ch (serum cholesterol) | Serum Parameter S-Cr (serum creatinine) |
| --- | --- | --- | --- | --- | --- | --- |
| Cl.N#C/C(=C\c1cccnc1)C(=O)NCCc1ccc(O)cc1 [Compound 6, (E)-2-cyano-N-(4-hydroxyphenethyl)-3-(3-pyridyl)-2-propenoic acid amide hydrochloride] | 16 | ++ | +++ | - | + | - |
| N#C/C(=C\c1cccnc1)C(=O)NCCc1cccc(O)c1 [Compound 8] | 6 | - | ++ | - | - | - |
| COc1cc(CCN(C)C(=O)/C=C/c2cccnc2)cc(OC)c1OC.Cl [Compound 9, (E)-N-methyl-3-(3-pyridyl)-N-(3,4,5-trimethoxyphenethyl)-2-propenoic acid amide hydrochloride] | 12 | + | ++ | + | + | + |
| COc1cccc(CCN(C)C(=O)/C=C/c2cccnc2)c1OC [Compound 13] | 13 | + | +++ | + | - | + |
| COc1ccc(CCN(C)C(=O)/C=C/c2cccnc2)c(OC)c1 [Compound 14] | 7 | - | + | + | + | - |
| COc1ccc(OC)c(CCN(C)C(=O)/C=C/c2cccnc2)c1 [Compound 15] | 11 | + | + | + | + | + |
| COc1cc(CCN(C)C(=O)/C=C/c2cccnc2)cc(OC)c1 [Compound 18] | 13 | + | ++ | ++ | ++ | - |
| COc1ccc(CN(C)C(=O)/C=C/c2cccnc2)cc1OC [Compound 20] | 13 | ++ | + | + | + | ++ |
| CN(CCc1ccc(Cl)c(Cl)c1)C(=O)/C=C/c1cccnc1 [Compound 25] | 13 | + | ++ | + | +++ | + |
| O=C(/C=C/c1cccnc1)NCCc1ccccc1O [Compound 38] | 19 | ++ | +++ | + | ++ | + |
| COc1ccc(OC)c(CCNC(=O)/C=C/c2cccnc2)c1 [Compound 39] | 21 | ++ | +++ | ++ | ++ | ++ |
| COc1cccc(CCNC(=O)/C=C/c2cccnc2)c1 [Compound 41] | 8 | + | - | - | +++ | ++ |
| COc1cccc(CNC(=O)/C=C/c2cccnc2)c1 [Compound 42] | 9 | + | + | + | - | ++ |
| O=C(/C=C/c1cccnc1)NCc1ccc(O)cc1 [Compound 45] | 10 | ++ | + | - | + | - |
| COc1ccc(O)c(CCNC(=O)/C=C/c2cccnc2)c1 [Compound 50] | 18 | ++ | +++ | - | +++ | - |
| CN(CCc1ccc(-c2ccccc2)cc1)C(=O)/C=C/c1cccnc1 [Compound 52] | 10 | + | + | + | + | ++ |

| SMILES | Total Evaluation | Proteinuria 5th day | Proteinuria 10th day | Serum Parameter BUN (blood urea nitrogen) | Serum Parameter S-Ch (serum cholesterol) | Serum Parameter S-Cr (serum creatinine) |
| --- | --- | --- | --- | --- | --- | --- |
| CSc1ccc(CCN(C)C(=O)/C=C/c2cccnc2)cc1 [Compound 53] | 6 | - | + | - | - | +++ |
| O=C(/C=C/c1cccnc1)NCCc1ccccc1O [Compound 70, (E)-N-(2-hydroxyphenethyl)-3-(3-pyridyl)-2-propenoic acid amide] | 22 | ++ | +++ | ++ | +++ | ++ |
| O=C(/C=C/c1cccnc1)NCCc1ccc(O)cc1 [Compound 71] | 17 | + | +++ | ++ | - | ++ |
| O=C(/C=C/c1cccnc1)NCCc1cccc(O)c1 [Compound 75] | 19 | ++ | +++ | + | ++ | + |
| CN(CCc1ccc(O)c(O)c1)C(=O)/C=C/c1cccnc1 [Compound 85, (E)-N-(3,4-dihydroxyphenethyl)-N-methyl-3-(3-pyridyl)-2-propenoic acid amide] | 21 | +++ | +++ | + | ++ | - |
| CN(CCc1ccc(O)cc1)C(=O)/C=C/c1cccnc1 [Compound 87] | 19 | +++ | + | +++ | ++ | ++ |
| O=C(/C=C/c1cccnc1)NCCc1cc(O)ccc1O [Compound 89] | 15 | ++ | ++ | + | ++ | - |
| O=C(/C=C/c1cccnc1)NCc1cccc(O)c1 [Compound 90] | 17 | ++ | +++ | + | - | + |
| O=C(/C=C/c1cccnc1)NCCc1ccc(O)c(O)c1 [Compound 91] | 14 | + | +++ | - | ++ | - |
| O=C(/C=C(/c1ccccc1)c1cccnc1)NCCc1cccc(O)c1 [Compound 93] | 8 | - | - | +++ | ++ | +++ |
| CCOC(=O)COc1ccc(CN(C)C(=O)/C=C/c2cccnc2)cc1 [Compound 95] | 9 | + | + | ++ | + | - |
| CCOC(=O)COc1cccc(CCNC(=O)/C=C/c2cccnc2)c1 [Compound 100] | 6 | - | + | + | + | + |
| CCOC(=O)COc1ccc(CCNC(=O)/C=C/c2cccnc2)cc1 [Compound 101] | 8 | - | ++ | - | - | ++ |
| COC(=O)COc1ccccc1CCNC(=O)/C=C/c1cccnc1 [Compound 102] | 9 | + | ++ | - | - | - |
| CNC(=O)COc1cccc(CCNC(=O)/C=C/c2cccnc2)c1 [Compound 114, (E)-N-[3-[(methyl-carbamoyl)methoxy]phenethyl]-3-(3-pyridyl)-2-propenoic acid amide] | 24 | +++ | +++ | ++ | +++ | + |
| NC(=O)COc1cccc(CCNC(=O)/C=C/c2cccnc2)c1 [Compound 115] | 10 | - | + | ++ | ++ | +++ |
